According to patent US12338484B2, “FRET biosensor for detecting and reporting NAD+/NADH ratio changes” (Sartorius BioAnalytical Instruments, Inc., priority 2022, dated 2025):

Legend:
Type in all cases: biochemical
Set-up in all cases: key: Good response: Constructs with very clear and robust spectra separation; Poor response: those with noticeable but small spectra separation; No response: those having no spectra separation
[1] = target: Thermus aquaticus T-Rex FRET fusion, initial construct #11, mKOk-Rex(A)-cpmEGFP(173/174)-Rex(B), SEQ ID NO: 171 (Thermus aquaticus, UniProt Q9X2V5, E116G/F189I/K117M/K204T/K47E/R46D/R58D/S30A/Y98W); assay: FRET response (emission spectra) of purified initial construct #11 in absence or presence of 40 uM NADH
Protocol: (§1) 16 initial FRET constructs (See Table 3) were constructed using expression vector pET28c with a T7 promoter and lac operator and expressed in E. coli. Cells were collected and lysed using a commercially-available lysis buffer. Proteins of interest were isolated from the lysates using Ni-NTA magnetic beads. Eluted proteins were subjected to buffer exchange and final protein concentrating. To test performance of the initial FRET constructs, their emission spectra was recorded on a plate reader in absence or presence of 40 uM NADH. Resulting emission spectra with or without the ligand were normalized and overlaid for each construct. Constructs with very clear and robust spectra separation were labeled as having “good response”, those with noticeable but small spectra separation were labeled as having “poor response”, and finally those having no spectra separation were labeled as having “no response”.

[2] = target: Thermus aquaticus T-Rex FRET fusion, initial construct #9, mKOk-Rex(A)-cpmEGFP(145/146)-Rex(B), SEQ ID NO: 169 (Thermus aquaticus, UniProt Q9X2V5, E116G/F189I/K117M/K204T/K47E/R46D/R58D/S30A/Y98W); assay: FRET response (emission spectra) of purified initial construct #9 in absence or presence of 40 uM NADH
Protocol: as §1

[3] = target: Thermus aquaticus T-Rex FRET fusion, initial construct #14, Rex(A)-mEGFP-Rex(B)-mKOk, SEQ ID NO: 174 (Thermus aquaticus, UniProt Q9X2V5, E116G/F189I/K117M/K204T/K47E/R46D/R58D/S30A/Y98W); assay: FRET response (emission spectra) of purified initial construct #14 in absence or presence of 40 uM NADH
Protocol: as §1

## NC(=O)C1=CN([C@@H]2O[C@H](COP(=O)(O)OP(=O)(O)OC[C@H]3O[C@@H](n4cnc5c(N)ncnc54)[C@H](O)[C@@H]3O)[C@@H](O)[C@H]2O)C=CC1 [NADH]
[1]
  FRET response to NADH: Poor response
[2]
  FRET response to NADH: No response
[3]
  FRET response to NADH: Good response
